This passage reports IC50 results from patent US10172830B2, “Pyrazolone compounds having human neutrophil elastase inhibitory properties” (CHIESI FARMACEUTICI S.P.A., priority 2016, dated 2019).

SMILES strings stand for the structures. pIC50: −log10 of the molar value.

This test addresses T1, human neutrophil elastase (HNE) (Homo sapiens, UniProt P08246).
T1 construct: purchased Sigma E8140
T1 sequence (P08246 30-247 limits assumed): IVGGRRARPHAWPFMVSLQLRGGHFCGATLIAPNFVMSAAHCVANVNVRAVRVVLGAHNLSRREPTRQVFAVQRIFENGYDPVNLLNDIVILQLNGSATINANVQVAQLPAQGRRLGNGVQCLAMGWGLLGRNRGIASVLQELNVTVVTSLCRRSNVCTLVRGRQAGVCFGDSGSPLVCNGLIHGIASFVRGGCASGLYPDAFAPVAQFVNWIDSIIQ
Kind of test: HNE enzyme assay (human neutrophil elastase enzyme activity assay). The note with it: human leukocyte elastase 0.00072 U/mL; substrate MeOSuc-Ala-Ala-Pro-Val-AMC 100 μM; 25° C. for 30 minutes; at least two separate experiments; read-out: HNE inhibition (HNE enzyme inhibition, IC50 values). Format: biochemical. Here is the method:
Compounds of the present invention were tested for potency in a human neutrophil elastase (HNE) enzyme activity assay.
Assays were performed in 96-well plates in a total assay volume of 100 μL. The final concentration of elastase enzyme (human leukocyte elastase, Sigma E8140) was 0.00072 U/mL. The peptide substrate (MeOSuc-Ala-Ala-Pro-Val-AMC, Calbiochem #324740) was used at a final concentration of 100 μM. The final concentration of DMSO was 1% in the assay buffer (0.05M Tris.HCl, 0.1M NaCl, 0.1M CaCl2, 0.0005% brij-35, pH 7.5). The enzymatic reaction was started by addition of the enzyme and incubated at 25° C. for 30 minutes. After incubation, the reaction was stopped by addition of soybean trypsin inhibitor (Sigma T9003) at a final concentration of 50 μg/well. Fluorescence was measured using a Molecular Devices fluorescence plate reader using 380 nm excitation and 460 nm emission wavelengths.
A dose response to each compound was performed and the effect of compound in each experiment was expressed as a percentage inhibition of the control enzyme fluorescence. Dose response curves were plotted and compound potency (IC50) was determined. Compounds were tested in at least two separate experiments.
For the compound `Cn1c(-c2ccnn2-c2ccc(C#N)cc2)c(C(=O)N[C@H]2C[C@H](C(=O)NC3CC[N+](C)(C)CC3)C2)c(=O)n1-c1cccc(C(F)(F)F)c1` [Example 55, 4-[(Trans-3-{[2′-(4-cyano-phenyl)-2-methyl-5-oxo-1-(3-trifluoromethyl-phenyl)-2,5-dihydro-1H,2′H-[3,3′]bipyrazolyl-4-carbonyl]-amino}-cyclobutanecarbonyl)-amino]-1,1-dimethyl-piperidinium benzene sulphonate], the pIC50 was over 9.00.

In the case of `C[C@H](NC(=O)c1c(-c2ccnn2-c2ccc(C#N)cc2)n(C)n(-c2cccc(C(F)(F)F)c2)c1=O)C(=O)N(C)CC1CCN(C)CC1` [Example 7, 2′-(4-Cyano-phenyl)-2-methyl-5-oxo-1-(3-trifluoromethyl-phenyl)-2,5-dihydro-1H,2′H-[3,3′]bipyrazolyl-4-carboxylic acid {(S)-1-[methyl-(1-methyl-piperidin-4-ylmethyl)-carbamoyl]-ethyl}-amide], the pIC50 is over 9.00.

Take `CN(C)C1CCN(C(=O)[C@H]2CC[C@H](NC(=O)c3c(-c4ccnn4-c4ccc(C#N)cc4)n(C)n(-c4cccc(C(F)(F)F)c4)c3=O)CC2)CC1` [Example 14, 2′-(Trans-4-cyano-phenyl)-2-methyl-5-oxo-1-(3-trifluoromethyl-phenyl)-2,5-dihydro-1H,2′H-[3,3′]bipyrazolyl-4-carboxylic acid [4-(4-dimethylamino-piperidine-1-carbonyl)-cyclohexyl]-amide]: the negative-log IC50 (pIC50) is over 9.00. For the compound `C[C@H](NC(=O)c1c(-c2ccnn2-c2ccc(C#N)cc2)n(C)n(-c2cccc(C(F)(F)F)c2)c1=O)C(=O)N(C)CC1CC[N+](C)(C)CC1` [Example 36, 4-{[((S)-2-{[2′-(4-Cyano-phenyl)-2-methyl-5-oxo-1-(3-trifluoromethyl-phenyl)-2,5-dihydro-1H,2′H-[3,3′]bipyrazolyl-4-carbonyl]-amino}-propionyl)-methyl-amino]-methyl}-1,1-dimethyl-piperidinium benzene sulphonate], the pIC50 was over 9.00. As to `Cn1c(-c2ccnn2-c2ccc(C#N)cc2)c(C(=O)NC2CC[N+](C)(C)CC2)c(=O)n1-c1cccc(C(F)(F)F)c1` [Example 18, 4-{[2′-(4-Cyano-phenyl)-2-methyl-5-oxo-1-(3-trifluoromethyl-phenyl)-2,5-dihydro-1H,2′H-[3,3′]bipyrazolyl-4-carbonyl]-amino}-1,1-dimethyl-piperidinium benzene sulphonate], the pIC50 was over 9.00.

Regarding `C[C@H](NC(=O)c1c(-c2ccnn2-c2ccc(C#N)cc2)n(C)n(-c2cccc(C(F)(F)F)c2)c1=O)C(=O)N1CCCN(C)CC1` [Example 17, 2′-(4-Cyano-phenyl)-2-methyl-5-oxo-1-(3-trifluoromethyl-phenyl)-2,5-dihydro-1H,2′H-[3,3′]bipyrazolyl-4-carboxylic acid [(S)-1-methyl-2-(4-methyl-[1,4]diazepan-1-yl)-2-oxo-ethyl]-amide], the pIC50 is over 9.00. For `CN(C)Cc1cnc(C(C)(C)NC(=O)c2c(-c3ccnn3-c3ccc(C#N)cc3)n(C)n(-c3cccc(C(F)(F)F)c3)c2=O)o1` [Example 10, 2′-(4-Cyano-phenyl)-2-methyl-5-oxo-1-(3-trifluoromethyl-phenyl)-2,5-dihydro-1H,2′H-[3,3′]bipyrazolyl-4-carboxylic acid [1-(5-dimethylaminomethyl-oxazol-2-yl)-1-methyl-ethyl]-amide] the value was over 9.00; for `CN(C)CC(=O)N1CCC(NC(=O)c2c(-c3ccnn3-c3ccc(C#N)cc3)n(C)n(-c3cccc(C(F)(F)F)c3)c2=O)CC1` [Example 6, 2′-(4-Cyano-phenyl)-2-methyl-5-oxo-1-(3-trifluoromethyl-phenyl)-2,5-dihydro-1H,2′H-[3,3′]bipyrazolyl-4-carboxylic acid [1-(2-dimethylamino-acetyl)-piperidin-4-yl]-amide], over 9.00; for `Cn1c(-c2ccnn2-c2ccc(C#N)cc2)c(C(=O)NC2(C(=O)NCC[N+](C)(C)C)CCCC2)c(=O)n1-c1cccc(C(F)(F)F)c1` [Example 57, {2-[(1-{[2′-(4-Cyano-phenyl)-2-methyl-5-oxo-1-(3-trifluoromethyl-phenyl)-2,5-dihydro-1H,2′H-[3,3′]bipyrazolyl-4-carbonyl]-amino}-cyclopentanecarbonyl)-amino]-ethyl}-trimethyl-ammonium benzene sulphonate], over 9.00.

For `Cn1c(-c2ccnn2-c2ccc(C#N)cc2)c(C(=O)N[C@H]2CC[C@H](c3ncc(C[N+](C)(C)C)o3)CC2)c(=O)n1-c1cccc(C(F)(F)F)c1` [Example 67, [2-(Trans-4-{[2′-(4-Cyano-phenyl)-2-methyl-5-oxo-1-(3-trifluoromethyl-phenyl)-2,5-dihydro-1H,2′H-[3,3′]bipyrazolyl-4-carbonyl]-amino}-cyclohexyl)-oxazol-5-ylmethyl]-trimethyl-ammonium benzene sulphonate], the pIC50 was over 9.00. For `Cn1c(-c2ccnn2-c2ccc(C#N)cc2)c(C(=O)NCC[N+](C)(C)C)c(=O)n1-c1cccc(C(F)(F)F)c1` [Example 21, (2-{[2′-(4-Cyano-phenyl)-2-methyl-5-oxo-1-(3-trifluoromethyl-phenyl)-2,5-dihydro-1H,2′H-[3,3′]bipyrazolyl-4-carbonyl]-amino}-ethyl)-trimethyl-ammonium benzene sulphonate] the value was 8.00 to 9.00. As to `C[C@H](NC(=O)c1c(-c2ccnn2-c2ccc(C#N)cc2)n(C)n(-c2cccc(C(F)(F)F)c2)c1=O)C(=O)N(C)C1CC[N+](C)(C)CC1` [Example 56, 4-[((S)-2-{[2′-(4-Cyano-phenyl)-2-methyl-5-oxo-1-(3-trifluoromethyl-phenyl)-2,5-dihydro-1H,2′H-[3,3′]bipyrazolyl-4-carbonyl]-amino}-propionyl)-methyl-amino]-1,1-dimethyl-piperidinium benzene sulphonate], the negative-log IC50 (pIC50) is over 9.00. With `Cn1c(-c2ccnn2-c2ccc(C#N)cc2)c(C(=O)NC2(C)CCN(C(=O)C[N+](C)(C)C)CC2)c(=O)n1-c1cccc(C(F)(F)F)c1` [Example 64, [2-(4-{[2′-(4-Cyano-phenyl)-2-methyl-5-oxo-1-(3-trifluoromethyl-phenyl)-2,5-dihydro-1H,2′H-[3,3′]bipyrazolyl-4-carbonyl]-amino}-4-methyl-piperidin-1-yl)-2-oxo-ethyl]-trimethyl-ammonium benzene sulphonate] the figure was over 9.00; with `Cn1c(-c2ccnn2-c2ccc(C#N)cc2)c(C(=O)OC2CCN(C(=O)C[N+](C)(C)C)CC2)c(=O)n1-c1cccc(C(F)(F)F)c1` [Example 34, (2-{4-[2′-(4-Cyano-phenyl)-2-methyl-5-oxo-1-(3-trifluoromethyl-phenyl)-2,5-dihydro-1H,2′H-[3,3′]bipyrazolyl-4-carbonyloxy]-piperidin-1-yl}-2-oxo-ethyl)-trimethyl-ammonium benzene sulphonate], 8.00 to 9.00.

Take `Cn1cc[n+](C[C@H]2CC[C@H](NC(=O)c3c(-c4ccnn4-c4ccc(C#N)cc4)n(C)n(-c4cccc(C(F)(F)F)c4)c3=O)CC2)c1` [Example 70, 1-(4-{[2′-(4-Cyano-phenyl)-2-methyl-5-oxo-1-(3-trifluoromethyl-phenyl)-2,5-dihydro-1H,2′H-[3,3′]bipyrazolyl-4-carbonyl]-amino}-cyclohexylmethyl)-3-methyl-3H-imidazol-1-ium bromide]: the pIC50 is over 9.00. With `Cn1c(-c2ccnn2-c2ccc(C#N)cc2)c(C(=O)N[C@@H]2C[C@@H]3CN(C(=O)OC(C)(C)C)C[C@@H]3C2)c(=O)n1-c1cccc(C(F)(F)F)c1` [Example 4, (3aS,5R,6aR)-5-{[2′-(4-Cyano-phenyl)-2-methyl-5-oxo-1-(3-trifluoromethyl-phenyl)-2,5-dihydro-1H,2′H-[3,3′]bipyrazolyl-4-carbonyl]-amino}-hexahydro-cyclopenta[c]pyrrole-2-carboxylic acid tert-butyl ester] the figure was over 9.00; with `CCNC(=O)c1c(-c2ccnn2-c2ccc(C#N)cc2)n(C)n(-c2cccc(C(F)(F)F)c2)c1=O` [Example 3, 2′-(4-Cyano-phenyl)-2-methyl-5-oxo-1-(3-trifluoromethyl-phenyl)-2,5-dihydro-1H,2′H-[3,3′]bipyrazolyl-4-carboxylic acid ethylamide], over 9.00; with `Cc1cc(C[N+](C)(C)Cc2cnc([C@H](C)NC(=O)c3c(-c4ccnn4-c4ccc(C#N)cc4)n(C)n(-c4cccc(C(F)(F)F)c4)c3=O)o2)no1` [Example 32, [2-((S)-1-{[2′-(4-Cyano-phenyl)-2-methyl-5-oxo-1-(3-trifluoromethyl-phenyl)-2,5-dihydro-1H,2′H-[3,3′]bipyrazolyl-4-carbonyl]-amino}-ethyl)-oxazol-5-ylmethyl]-dimethyl-(5-methyl-isoxazol-3-ylmethyl)-ammonium chloride], over 9.00.

As usually defined, the pIC50 is −log10 of the IC50, conventionally taken in molar units.
